In patent publication US20240180914A1, “ORAL GEL COMPOSITION AND USE THEREOF” (DR. KURT WOLFF GMBH & CO. KG, priority 2021, published 2024):

Tests used:
GM-CSF [1] = experiment: ELISA, experiments regarding GM-CSF in HaCaT; assay type: cell-based, human; settings: 48 h
Method: (§1) For Q-PCR: Determination of VEGF, HGF and EGF mRNA expression in cell lysates • 2. For ELISA: Determination of VEGF, HGF and EGF protein synthesis/secretion into the culture medium
(§2) The initial cell count was • 1. for Q-PCR: 140,000 cells/well in 1500 μl culture medium • 2. for ELISA: 140,000 cells/well in 1.500 μl culture medium.
(§3) The trial duration for • 1. Q-PCR was 24 hours (single treatment at time 0 h) • 2. ELISA was 48 hours (double treatment at time 0 h and 24 h without changing the medium).

TNFα [2] = experiment: Q-PCR, TNFα-specific mRNA in HaCaT; assay type: cell-based, human; settings: both experiments
HGF [3] = experiment: ELISA, HGF protein synthesis/secretion in HaCaT; assay type: cell-based, human; settings: both experiments
Method: as §1, §2, §3

[4] = test system: human epidermal HaCaT keratinocytes; experiment: colourimetric MTT viability study
Method: To investigate the effect of caffeine on the biological functions of human epidermal HaCaT keratinocytes, cell experiments were performed on human epidermal HaCaT keratinocytes, wherein the following studies were carried out: • 1. P13-A biological assay 1 with two independent studies • 2. P13-B biological assay 2 with two independent studies.
The initial cell count was 5000 cells/well in 100 μl culture medium.
The culture medium was HaCaT medium (DMEM with the addition of 10% FBS, 1% penicillin-streptomycin, 0.5% fungizone).
The treatment groups were as follows: • 1. Control group (CTRL) • 2. 0.00005% caffeine • 3. 0.0001% caffeine • 4. 0.0005% caffeine • 5. 0.001% caffeine • 6. 0.005% caffeine
The trial durations were 24, 48 and 72 hours.
The study took the form of a colourimetric MTT study.

TGFβ1 [5] = experiment: ELISA, TGFβ1-specific protein in HaCaT; assay type: cell-based, human; settings: 48 h; both experiments
TGFβ1 [6] = experiment: Q-PCR, TGFβ1 mRNA expression in HaCaT; assay type: cell-based, human; settings: all tested caffeine concentrations; 24 h; Experiments 1 and 2
TGFβ2 = experiment: Q-PCR, TGFβ2 mRNA expression in HaCaT; assay type: cell-based, human
VEGF [7] = experiment: Q-PCR, VEGF mRNA expression in HaCaT cell lysates; assay type: cell-based, human; settings: all caffeine concentrations; 24 hours; Experiments 1 and 2
Method: as §1, §2, §3
(§4) The study was carried out • 1. for Q-PCR by determining VEGF mRNA expression in cell lysates • 2. for ELISA by determining VEGF protein synthesis/secretion in the culture medium.

GM-CSF [8] = experiment: Q-PCR, experiments regarding GM-CSF in HaCaT; assay type: cell-based, human; settings: all tested caffeine concentrations; 24 h; Experiments 1 and 2
Method: as §1, §2, §3

TNFα [9] = experiment: ELISA, TNFα-specific protein in HaCaT; assay type: cell-based, human; settings: both experiments
VEGF [10] = experiment: ELISA, VEGF protein synthesis/secretion into the culture medium of HaCaT; assay type: cell-based, human; settings: 48 hours
Method: as §1, §2, §3, §4

HGF [11] = experiment: Q-PCR, HGF mRNA expression in HaCaT cell lysates; assay type: cell-based, human; settings: both experiments
Method: as §1, §2, §3

[12] = test system: human epidermal HaCaT keratinocytes; experiment: fluorometric CyQUANT cell proliferation study (DNA content); assay type: cell-based; settings: 0.00005, 0.0005, 0.005% caffeine; 24, 48 or 72 hours; best effects after 72 hours
Method: To investigate the effect of caffeine on cell proliferation of human epidermal HaCaT keratinocytes, human HaCaT keratinocytes were subjected to a CyQUANT viability assay, wherein the following series of experiments were performed: • 1. P22 Experiment 1 (biological assay 1) • 2. P24 Experiment 2 (biological assay 2).
The trial durations were 24, 48 or 72 hours.
The study was carried out by fluorometric CyQUANT study, wherein the DNA content was measured, reflecting cell proliferation.

[13] = 0.0005% caffeine, both experiments

Cn1c(=O)c2c(ncn2C)n(C)c1=O [caffeine]
VEGF protein production/secretion compared to the control group (under experiments regarding GM-CSF) (GM-CSF [1]; 0j.005% caffeine, Experiment 2): also showed an effect | VEGF protein production/secretion compared to the control group (under experiments regarding GM-CSF) (GM-CSF [1]; [13]): increased VEGF protein production/secretion | expression of TNFα-specific mRNA (TNFα [2]): below the detection limit | expression of HGF-specific protein (HGF [3]): below the detection limit | cytotoxicity ([4]; 0.00005-0.005% caffeine, 24, 48 and 72 hours): none of the concentrations tested showed cytotoxicity | number of viable cells ([4]; certain concentrations of caffeine): increased the number of viable cells | level of TGFβ1-specific protein (TGFβ1 [5]): below the detection limit | mRNA expression of TGFβ1 (TGFβ1 [6]): None of the tested caffeine concentrations changed the mRNA expression of TGFβ1 | mRNA expression of TGFβ2 (TGFβ2; certain caffeine concentrations, 24 h, Experiment 2): apparently increase mRNA expression of TGFβ2 | synthesis/production/secretion of TGFβ2 (overall conclusion) (TGFβ2; despite contradictory results in the two Q-PCR experiments): most likely does not alter | mRNA expression of VEGF compared to the control group (VEGF [7]): appear to increase mRNA expression of VEGF | mRNA expression of VEGF compared to the control group (under experiments regarding GM-CSF) (GM-CSF [8]): apparently increased the mRNA expression of VEGF | expression of TNFα-specific protein (TNFα [9]): below the detection limit | VEGF protein production/secretion compared to the control group (VEGF [10]; [13]): increases VEGF protein production/secretion | VEGF protein production/secretion compared to the control group (VEGF [10]; 0.005% caffeine, Experiment 2): also showed an effect | expression of HGF-specific mRNA (HGF [11]): below the detection limit | cell proliferation (DNA content) [12]: appears to promote cell proliferation
